“Also recorded” adds a separate entry of the source.
What was measured:
Aβ42 [1] = target: T1, Aβ42 (Homo sapiens, UniProt P05067); assay: Spontaneous Aβ42 fibrillization (ThT fluorescence, EM); assay type: biochemical; conditions: 25°C; for Inhibition of spontaneous Aβ42 fibrillization: Aβ42 5 μM, foldamer 10 μM, 8 h, agitation, ThT fluorescence (EM 4 h); for Inhibition of spontaneous Aβ42 fibrillization, different assembly conditions: Aβ prepared without DMSO, PBE pH 8, Aβ42 5 μM, foldamer 20 μM, 16 h, ThT
Aβ42 [2] = target: T1, Aβ42; assay: Seeded Aβ42 fibrillization (ThT fluorescence, EM); assay type: biochemical; conditions: for Inhibition of seeded Aβ42 fibrillization: foldamer 5, 10 or 20 μM, 0–2 h, 25°C; for Inhibition of seeded Aβ42 fibrillization, different assembly conditions: Aβ prepared without DMSO, PBE pH 8, Aβ42 5 μM plus seed 0.1 μM monomer, 16 h
Aβ43 [3] = target: T2, Aβ43 (Homo sapiens, UniProt P05067); assay: Spontaneous Aβ43 fibrillization (ThT fluorescence, EM); assay type: biochemical; conditions: Aβ43 5 μM; for Inhibition of spontaneous Aβ43 fibrillization: foldamer 5, 10 or 20 μM, 0–8 h, 25°C, ThT, EM 10 μM 4 h
Aβ43 [4] = target: T2, Aβ43; assay: Seeded Aβ43 fibrillization (ThT fluorescence, EM); assay type: biochemical; conditions: for Inhibition of seeded Aβ43 fibrillization: Aβ43 5 μM plus seed 0.1 μM monomer, foldamer 5, 10 or 20 μM, 0–2 h, 25°C, ThT, EM
Aβ42 fibrils = Aβ42 fibrils (Homo sapiens, UniProt P05067); assay: Disassembly of preformed Aβ42 fibrils; assay type: biochemical; conditions: foldamer in 4-fold molar excess, 24 h (results not shown)
FUS = target: T3, FUS (Homo sapiens, UniProt P35637); assay: FUS aggregation (turbidity, absorbance at 395 nm); assay type: biochemical; conditions: GST-FUS 5 μM, foldamer 20 μM, plus TEV protease, 25°C, 0–90 min
T3 sequence (P35637 1-526): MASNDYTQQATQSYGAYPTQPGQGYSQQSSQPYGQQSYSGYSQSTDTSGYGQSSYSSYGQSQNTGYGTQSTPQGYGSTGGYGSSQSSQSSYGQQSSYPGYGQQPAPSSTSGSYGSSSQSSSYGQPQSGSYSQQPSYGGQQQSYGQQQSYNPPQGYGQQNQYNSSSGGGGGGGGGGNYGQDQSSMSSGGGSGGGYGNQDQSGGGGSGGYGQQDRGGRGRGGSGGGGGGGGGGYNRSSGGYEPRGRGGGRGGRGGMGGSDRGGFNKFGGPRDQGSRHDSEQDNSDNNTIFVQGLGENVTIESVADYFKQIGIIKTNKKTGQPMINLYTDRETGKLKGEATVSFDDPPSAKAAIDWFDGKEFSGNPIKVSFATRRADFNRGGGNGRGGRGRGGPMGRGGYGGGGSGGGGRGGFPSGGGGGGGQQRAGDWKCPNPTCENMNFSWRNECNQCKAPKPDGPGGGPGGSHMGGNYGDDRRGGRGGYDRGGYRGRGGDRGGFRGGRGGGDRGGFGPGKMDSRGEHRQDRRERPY
Description: GST–TEV–FUS was purified as described. Aggregation was initiated by addition of tobbaco etch virus (TEV) protease to GST–TEV–FUS (5 μM) plus or minus foldamer (20 μM) in assembly buffer (50 mM Tris/HCl pH 8, 0.2 M trehalose and 20 mM glutathione). Aggregation was for 0–90 min at 25°C without agitation in a 96-well plate and was assessed by turbidity (absorbance at 395 nm) using a Tecan Infinite M1000 plate reader. No aggregation occurred unless TEV protease was added to separate GST from FUS [58].

Aβ42 oligomers = Aβ42 oligomers (Homo sapiens, UniProt P05067); assay: A11-reactive Aβ42 conformers (ELISA); assay type: biochemical; conditions: Aβ42 5 μM, foldamer 20 μM, 25°C; for Effect on A11-reactive Aβ42 conformers after 0.5 h: 0.5 h (end of lag phase); for Effect on A11-reactive Aβ42 conformers after 4 h: 4 h (endpoint of fibrillization)
Aβ43 oligomers = Aβ43 oligomers (Homo sapiens, UniProt P05067); assay: A11-reactive Aβ43 conformers (ELISA); assay type: biochemical; conditions: Aβ43 5 μM, foldamer 20 μM, 25°C; for Effect on A11-reactive Aβ43 conformers after 0.5 h: 0.5 h (end of lag phase); for Effect on A11-reactive Aβ43 conformers after 4 h: 4 h (endpoint of fibrillization)
[5] = test system: SH-SY5Y human neuroblastoma cells; assay: Toxicity of Aβ42 conformers to SH-SY5Y cells (MTT reduction, LDH release); assay type: cell-based; conditions: 24 h, MTT and LDH; for Effect on toxicity of Aβ42 conformers after 0.5 h of assembly: Aβ42 5 μM assembled with foldamer 20 μM for 0.5 h; for Effect on toxicity of Aβ42 conformers after 4 h of assembly: Aβ42 5 μM assembled with foldamer 20 μM for 4 h
Description: (§1) SH-SY5Y human neuroblastoma cells were maintained in Dulbecco's modified Eagle's medium (DMEM) plus 10 mM Hepes, 10% FBS, 4 mM glutamine, penicillin (200 units/ml) and streptomycin (200 μg/ml) in 5% CO2 at 37°C. Cells were differentiated in serum-free DMEM with N2 supplement and 10 μM all-trans-retinoic acid before use. Cells were plated at (10000 cells/well) in 96-well plates and grown overnight. Medium was removed and Aβ conformers or controls were added and cells were incubated for 24 h at 37°C. Toxicity was assessed using an MTT kit (Tox-1; Sigma) or via lactate dehydrogenase (LDH) release using the CytoTox-ONE™ kit (Promega). Toxicity values were normalized to the buffer control without Aβ.

[6] = test system: SH-SY5Y human neuroblastoma cells; assay: Toxicity of Aβ43 conformers to SH-SY5Y cells (MTT reduction, LDH release); assay type: cell-based; conditions: 24 h, MTT and LDH; for Effect on toxicity of Aβ43 conformers after 0.5 h of assembly: Aβ43 5 μM assembled with foldamer 20 μM for 0.5 h; for Effect on toxicity of Aβ43 conformers after 4 h of assembly: Aβ43 5 μM assembled with foldamer 20 μM for 4 h
Description: as §1

[7] = Aβ42 5 μM plus seed 0.1 μM monomer

T1 sequence (P05067 672-713 limits assumed): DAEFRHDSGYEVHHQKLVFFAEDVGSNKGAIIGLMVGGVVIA
Aβ42 oligomers, sequence (P05067 672-713 limits assumed): as above
T2 sequence (P05067 672-714 limits assumed): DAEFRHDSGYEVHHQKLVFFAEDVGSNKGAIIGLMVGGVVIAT
Aβ43 oligomers, sequence (P05067 672-714 limits assumed): as above
Aβ42 fibrils, sequence (P05067 672-713 limits assumed): as the sequence (P05067 672-713 limits assumed) above

## (Lys-Sal)4-COMe
Aβ42 [1]
  Inhibition of spontaneous Aβ42 fibrillization: ineffective

## (Lys-Sal)4-CONH2
Aβ42 [1]
  Inhibition of spontaneous Aβ42 fibrillization: ineffective

## (Lys-Sal)4-COOH
Aβ42 [1]
  Inhibition of spontaneous Aβ42 fibrillization: ineffective

## (Lys-Sal)4-COβAla
Aβ42 [1]
  Inhibition of spontaneous Aβ42 fibrillization: ineffective

## Ac-(Lys-Sal)2-CONH2
Aβ42 [1]
  Inhibition of spontaneous Aβ42 fibrillization: failed to inhibit assembly

## Ac-(Lys-Sal)3-CONH2
Aβ42 [1]
  Inhibition of spontaneous Aβ42 fibrillization: failed to inhibit assembly

## Ac-Sal-(Lys-Sal)3-CONH2
Aβ42 [1]
  Inhibition of spontaneous Aβ42 fibrillization: strong inhibitors; also recorded: potent inhibitors
  Inhibition of spontaneous Aβ42 fibrillization, different assembly conditions: inhibited
Aβ42 [2]; [7]
  Inhibition of seeded Aβ42 fibrillization: inhibited seeded Aβ42 fibrillization at all concentrations tested
Aβ42 [2]; foldamer 20 μM
  Inhibition of seeded Aβ42 fibrillization, different assembly conditions: inhibited
Aβ43 [3]
  Inhibition of spontaneous Aβ43 fibrillization: did not block spontaneous Aβ43 fibrillization
Aβ43 [4]
  Inhibition of seeded Aβ43 fibrillization: did not inhibit seeded Aβ43 fibrillization
Aβ42 fibrils
  Disassembly of Aβ42 fibrils: did not disassemble Aβ42 fibrils
FUS
  Inhibition of FUS aggregation: did not inhibit FUS aggregation
Aβ42 oligomers
  Effect on A11-reactive Aβ42 conformers after 0.5 h: had no effect
  Effect on A11-reactive Aβ42 conformers after 4 h: remained at higher levels
Aβ43 oligomers
  Effect on A11-reactive Aβ43 conformers after 0.5 h: had no effect
  Effect on A11-reactive Aβ43 conformers after 4 h: declined more extensively
[5]
  Effect on toxicity of Aβ42 conformers after 0.5 h of assembly: had no effect
  Effect on toxicity of Aβ42 conformers after 4 h of assembly: enhanced
[6]
  Effect on toxicity of Aβ43 conformers after 0.5 h of assembly: neither Sal-(Lys-Sal)3-CONH2 nor Ac-Sal-(Lys-Sal)3-CONH2 affected the toxicity
  Effect on toxicity of Aβ43 conformers after 4 h of assembly: neither Sal-(Lys-Sal)3-CONH2 nor Ac-Sal-(Lys-Sal)3-CONH2 affected the toxicity

## Sal-(Lys-Sal)2-CONH2
Aβ42 [1]
  Inhibition of spontaneous Aβ42 fibrillization: failed to inhibit assembly

## Sal-(Lys-Sal)3-CONH2
Aβ42 [1]
  Inhibition of spontaneous Aβ42 fibrillization: strong inhibitors; also recorded: potent inhibitors
  Inhibition of spontaneous Aβ42 fibrillization, different assembly conditions: inhibited
Aβ42 [2]; Aβ42 5 μM plus seed 0.1 μM monomer, foldamer 20 μM
  Extent of seeded Aβ42 fibrillization at 4-fold molar excess of foldamer: very limited
Aβ42 [2]; [7]
  Inhibition of seeded Aβ42 fibrillization: only inhibited seeded Aβ42 fibrillization when present at a 4-fold molar excess over Aβ42
Aβ42 [2]; foldamer 20 μM
  Inhibition of seeded Aβ42 fibrillization, different assembly conditions: inhibited
Aβ43 [3]; compared with Aβ43 alone
  ThT fluorescence of Aβ43 fibrils formed in presence of foldamer (spontaneous): higher ThT fluorescence
Aβ43 [3]
  Inhibition of spontaneous Aβ43 fibrillization: did not block spontaneous Aβ43 fibrillization
Aβ43 [4]
  Inhibition of seeded Aβ43 fibrillization: did not inhibit seeded Aβ43 fibrillization
Aβ43 [4]; Aβ43 5 μM plus seed, compared with Aβ43 alone
  ThT fluorescence of Aβ43 fibrillar forms in presence of foldamer (seeded): higher ThT fluorescence signal
Aβ42 fibrils
  Disassembly of Aβ42 fibrils: did not disassemble Aβ42 fibrils
FUS
  Inhibition of FUS aggregation: delayed FUS aggregation
Aβ42 oligomers
  Effect on A11-reactive Aβ42 conformers after 0.5 h: had no effect
  Effect on A11-reactive Aβ42 conformers after 4 h: remained at higher levels
Aβ43 oligomers
  Effect on A11-reactive Aβ43 conformers after 0.5 h: had no effect
  Effect on A11-reactive Aβ43 conformers after 4 h: declined more extensively
[5]
  Effect on toxicity of Aβ42 conformers after 0.5 h of assembly: had no effect
  Effect on toxicity of Aβ42 conformers after 4 h of assembly: enhanced
[6]
  Effect on toxicity of Aβ43 conformers after 0.5 h of assembly: neither Sal-(Lys-Sal)3-CONH2 nor Ac-Sal-(Lys-Sal)3-CONH2 affected the toxicity
  Effect on toxicity of Aβ43 conformers after 4 h of assembly: neither Sal-(Lys-Sal)3-CONH2 nor Ac-Sal-(Lys-Sal)3-CONH2 affected the toxicity

Source: paper PMC4209162, “Specific aromatic foldamers potently inhibit spontaneous and seeded Aβ42 and Aβ43 fibril assembly” (Biochemical Journal, 2014)
